Each structure is given as a SMILES string. Calls of active or inactive are those of the source. The rule behind the calls is not given here.

Consider 15 compounds from ChEMBL document CHEMBL4052639, “2-Isocyano glucose used in Ugi four-component reaction: An approach to enhance inhibitory effect against DNA oxidation” (Eur J Med Chem, 2017).

Assay type in all cases: functional
A short description of test [1]: Antioxidant activity assessed as reduction in Cu2+/GSH-induced DNA oxidation by measuring TBARS level at 400 uM after 90 mins relative to control. More on the design: scale not given: the % may be the effect or the level left.
A short description of test [2]: Antioxidant activity assessed as reduction in AAPH-induced DNA oxidation up to 400 uM measured every 2 hrs by TBARS assay.
The nature of test [3]: Antioxidant activity assessed as reduction in hydroxyl radical-induced DNA oxidation by measuring TBARS level at 400 uM after 90 mins relative to control. The arrangement: scale not given: the % may be the effect or the level left.

As for `O=C(CN(C(=O)c1cc(O)c(O)c(O)c1)c1ccc(O)cc1)N[C@@H]1[C@@H](O)[C@H](O)[C@@H](CO)O[C@H]1O`, the Activity in test [1] came to 91%; in test [3], 91.8%. In test [2], the outcome was Active.

With `O=C(O)c1cc(O)c(O)c(O)c1`, in test [2], the result was Active.

With `O=C(CN(C(=O)c1ccccc1)c1ccc(O)cc1)N[C@@H]1[C@@H](O)[C@H](O)[C@@H](CO)O[C@H]1O`, the values for the Activity in test [1] and in test [3] were 96.7% and 98.3%, respectively. Moreover, the outcome in test [2] was Active.

For `COc1cc(/C=C/C(=O)N(CC(=O)N[C@@H]2[C@@H](O)[C@H](O)[C@@H](CO)O[C@H]2O)Cc2ccccc2)ccc1O`, the Activity turned out to be 92.8% in test [1] and 94.7% in test [3]. The outcome in test [2] was Active.

With `O=C(CN(C(=O)c1cc(O)c(O)c(O)c1)c1ccccc1)NC12CC3CC(CC(C3)C1)C2`, the Activity was found to be 93.6% in test [1] and 95.6% in test [3]. In addition, in test [2], the result was Active.

With `COc1cc(/C=C/C(=O)O)ccc1O`, the result in test [2] was Active.

For the compound `O=C(CN(C(=O)c1cc(O)c(O)c(O)c1)c1ccccc1)NCCc1c[nH]c2ccccc12`, the Activity amounted to 96.2% in test [1] and 93.8% in test [3]. The outcome in test [2] was Active.

On to `O=C(O)/C=C/c1ccc(O)c(O)c1`, for which the outcome in test [2] was Active.

Consider `O=C(CN(C(=O)c1cc(O)c(O)c(O)c1)c1ccccc1)N[C@@H]1[C@@H](O)[C@H](O)[C@@H](CO)O[C@H]1O`, for which the Activity in test [1] was found to be 90.1%; in test [3], 92.7%. Further, in test [2], the outcome was Active.

For `O=C(O)c1ccc(O)cc1`, the result in test [2] was Active.

Turning to `O=C(CN(Cc1ccccc1)C(=O)/C=C/c1ccc(O)c(O)c1)N[C@@H]1[C@@H](O)[C@H](O)[C@@H](CO)O[C@H]1O`, the Activity came out at 94.6% in test [1] and 93.7% in test [3]. Moreover, in test [2], the outcome was Active.

On to `O=C(CN(C(=O)c1ccc(O)cc1)c1ccc(O)cc1)N[C@@H]1[C@@H](O)[C@H](O)[C@@H](CO)O[C@H]1O`, for which the Activity in test [1] came out at 95%; in test [3], 94.9%. Also, the result in test [2] was Active.

Turning to `O=C(CN(C(=O)c1ccccc1)c1ccccc1)N[C@@H]1[C@@H](O)[C@H](O)[C@@H](CO)O[C@H]1O`, the Activity in test [1] was found to be 99.3%; in test [3], 100%. For the same compound, the result in test [2] was inactive.

Regarding `O=C(CN(C(=O)c1cc(O)c(O)c(O)c1)c1ccccc1)NC1CCCCC1`, the Activity in test [1] and in test [3] was 97.1% in each case. Also, in test [2], the result was Active.

Regarding `O=C(CN(C(=O)c1ccc(O)cc1)c1ccccc1)N[C@@H]1[C@@H](O)[C@H](O)[C@@H](CO)O[C@H]1O`, the Activity in test [1] was 97.8%; in test [3] it was 96.5%. In test [2], the result was Active.
